According to the NIST ThermoML archive (doi:10.1016/j.tca.2015.02.020):
± gives the expanded uncertainty stated by the source.

Experiment: molar heat capacity at constant pressure; xn = mol fraction of the nth substance listed
Conditions: 101 kPa, Small sample (50 mg) DSC

NCCO [2-aminoethan-1-ol] + O
Conditions	molar heat capacity at constant pressure [J/K/mol]
125.88 K, Glass, x1 = 0.19	25.67 ± 5.2
126.5 K, Glass, x1 = 0.31	30.11 ± 6
126.8 K, Glass, x1 = 0.73	44.51 ± 8.9
126.93 K, Glass, x1 = 0.73	46.98 ± 2
127.09 K, Glass, x1 = 0.23	27.92 ± 1.1
127.56 K, Glass, x1 = 0.19	25.67 ± 1
127.58 K, Glass, x1 = 0.23	28.2 ± 5.6
128.65 K, Glass, x1 = 0.31	31.05 ± 1.3
130.53 K, Glass, x1 = 0.19	28.03 ± 5.5
131.15 K, Glass, x1 = 0.31	31.68 ± 6.3
131.46 K, Glass, x1 = 0.73	45.5 ± 8.9
131.76 K, Glass, x1 = 0.73	48.96 ± 2
131.91 K, Glass, x1 = 0.31	31.68 ± 1.3
131.92 K, Glass, x1 = 0.23	29.6 ± 1.4
132.24 K, Glass, x1 = 0.23	29.6 ± 5.9
132.38 K, Glass, x1 = 0.19	26.72 ± 1
135.04 K, Glass, x1 = 0.73	49.95 ± 2
135.19 K, Glass, x1 = 0.31	32.62 ± 1.3
135.2 K, Glass, x1 = 0.19	30.13 ± 6
135.2 K, Glass, x1 = 0.23	30.71 ± 1.4
135.66 K, Glass, x1 = 0.19	27.77 ± 1.3
136.91 K, Glass, x1 = 0.23	31.55 ± 6.4
136.92 K, Glass, x1 = 0.31	33.88 ± 6.9
137.23 K, Glass, x1 = 0.73	46.98 ± 9.4
139.88 K, Glass, x1 = 0.19	33.27 ± 6.8
141.59 K, Glass, x1 = 0.23	34.34 ± 7
141.59 K, Glass, x1 = 0.31	36.07 ± 7.2
141.6 K, Glass, x1 = 0.73	52.42 ± 2.5
141.75 K, Glass, x1 = 0.23	32.67 ± 1.4
141.75 K, Glass, x1 = 0.31	34.19 ± 1.6
141.91 K, Glass, x1 = 0.73	47.97 ± 9.4
142.22 K, Glass, x1 = 0.19	29.34 ± 1.3
144.56 K, Glass, x1 = 0.19	38.25 ± 7.6
144.88 K, Glass, x1 = 0.73	53.91 ± 2.5
145.03 K, Glass, x1 = 0.31	35.13 ± 1.6
145.04 K, Glass, x1 = 0.23	34.06 ± 1.4
145.51 K, Glass, x1 = 0.19	30.91 ± 1.3
146.28 K, Glass, x1 = 0.23	39.37 ± 7.8
146.28 K, Glass, x1 = 0.31	40.15 ± 8.2
146.6 K, Glass, x1 = 0.73	49.95 ± 9.9
151.3 K, Glass, x1 = 0.73	52.92 ± 10
151.46 K, Glass, x1 = 0.73	56.38 ± 2.5
151.61 K, Glass, x1 = 0.31	39.21 ± 1.6
154.75 K, Glass, x1 = 0.73	57.86 ± 2.5
158.65 K, Liquid, x1 = 0.19	63.66 ± 13
160.38 K, Liquid, x1 = 0.23	65.61 ± 13
161.96 K, Liquid, x1 = 0.19	60.52 ± 2.6
163.35 K, Liquid, x1 = 0.19	64.19 ± 13
164.78 K, Liquid, x1 = 0.31	75.91 ± 3.1
165.07 K, Liquid, x1 = 0.23	65.61 ± 13
165.08 K, Liquid, x1 = 0.31	73.71 ± 15
165.25 K, Liquid, x1 = 0.19	60.78 ± 2.6
168.06 K, Liquid, x1 = 0.19	64.45 ± 13
169.79 K, Liquid, x1 = 0.23	65.61 ± 13
169.79 K, Liquid, x1 = 0.31	73.4 ± 15
170.12 K, Liquid, x1 = 0.73	109.3 ± 22
171.22 K, Liquid, x1 = 0.73	122.65 ± 5.4
171.38 K, Liquid, x1 = 0.23	68.96 ± 2.8
171.38 K, Liquid, x1 = 0.31	75.59 ± 3.1
171.85 K, Liquid, x1 = 0.19	61.57 ± 2.6
172.77 K, Liquid, x1 = 0.19	64.97 ± 13
174.5 K, Liquid, x1 = 0.23	65.61 ± 13
174.5 K, Liquid, x1 = 0.31	73.4 ± 15
174.52 K, Liquid, x1 = 0.73	121.66 ± 4.9
174.68 K, Liquid, x1 = 0.23	69.52 ± 3.1
174.68 K, Liquid, x1 = 0.31	75.59 ± 3.1
174.83 K, Liquid, x1 = 0.73	109.3 ± 22
175.15 K, Liquid, x1 = 0.19	61.83 ± 2.6
177.48 K, Liquid, x1 = 0.19	65.23 ± 13
179.21 K, Liquid, x1 = 0.23	65.89 ± 13
179.21 K, Liquid, x1 = 0.31	73.4 ± 15
179.55 K, Liquid, x1 = 0.73	109.79 ± 22
181.12 K, Liquid, x1 = 0.73	122.15 ± 4.9
181.28 K, Liquid, x1 = 0.23	70.36 ± 3.1
181.28 K, Liquid, x1 = 0.31	76.22 ± 3.1
181.75 K, Liquid, x1 = 0.19	62.35 ± 2.6
182.19 K, Liquid, x1 = 0.19	66.02 ± 13
183.93 K, Liquid, x1 = 0.23	66.17 ± 13
183.93 K, Liquid, x1 = 0.31	73.71 ± 15
184.27 K, Liquid, x1 = 0.73	109.79 ± 22
184.43 K, Liquid, x1 = 0.73	122.15 ± 4.9
184.58 K, Liquid, x1 = 0.31	76.22 ± 3.1
184.59 K, Liquid, x1 = 0.23	70.64 ± 3.1
186.92 K, Liquid, x1 = 0.19	66.54 ± 13
188.65 K, Liquid, x1 = 0.23	66.73 ± 13
188.65 K, Liquid, x1 = 0.31	74.02 ± 15
188.98 K, Liquid, x1 = 0.73	110.28 ± 22
191.04 K, Liquid, x1 = 0.73	120.18 ± 4.9
191.19 K, Liquid, x1 = 0.31	77.16 ± 3.1
191.2 K, Liquid, x1 = 0.23	71.48 ± 3.1
191.64 K, Liquid, x1 = 0.19	67.07 ± 13
193.38 K, Liquid, x1 = 0.23	67.57 ± 14
193.38 K, Liquid, x1 = 0.31	74.65 ± 15
193.72 K, Liquid, x1 = 0.73	111.27 ± 22
194.5 K, Liquid, x1 = 0.31	77.47 ± 3.1
194.51 K, Liquid, x1 = 0.23	72.04 ± 3.1
196.37 K, Liquid, x1 = 0.19	67.85 ± 14
198.1 K, Liquid, x1 = 0.23	68.13 ± 14
198.1 K, Liquid, x1 = 0.31	74.97 ± 15
198.44 K, Liquid, x1 = 0.73	112.26 ± 23
201.09 K, Liquid, x1 = 0.19	68.9 ± 14
201.13 K, Liquid, x1 = 0.23	72.59 ± 3.1
201.13 K, Liquid, x1 = 0.31	78.73 ± 3.5
202.83 K, Liquid, x1 = 0.23	68.96 ± 14
202.84 K, Liquid, x1 = 0.31	75.28 ± 15
203.18 K, Liquid, x1 = 0.73	112.76 ± 23
204.44 K, Liquid, x1 = 0.23	72.87 ± 3.1
204.44 K, Liquid, x1 = 0.31	79.36 ± 3.5
205.82 K, Liquid, x1 = 0.19	69.95 ± 14
207.56 K, Liquid, x1 = 0.23	69.8 ± 14
207.56 K, Liquid, x1 = 0.31	76.22 ± 15
